Values joined by “and” are separate entries in the source; they are usually repeats but may differ in a detail not shown here. Equal entries are not always repeated.
Assays:
Test in all cases: radiometric filter-binding kinase assay, Kinase HotSpot
Conditions in all cases: compound 0.5 µM; ATP 10 µM
AKT2 (human) = AKT2 (human) (UniProt P31751)
BLK (human) = BLK (human) (UniProt P51451)
BMX (human) = BMX (human) (UniProt P51813)
CAMK2G (human) = CAMK2G (human) (UniProt Q13555)
CDK5 CDK5R1 p35 (human) = CDK5 CDK5R1 p35 (human) (UniProt Q00535+Q15078)
CDK6 CCND1 (human) = CDK6 CCND1 (human) (UniProt Q00534+P24385)
CDK9 CCNT1 (human) = CDK9 CCNT1 (human) (UniProt P50750+O60563)
CSNK1G1 (human) = CSNK1G1 (human) (UniProt Q9HCP0)
DDR2 (human) = DDR2 (human) (UniProt Q16832)
DMPK (human) = DMPK (human) (UniProt Q09013)
EPHA7 (human) = EPHA7 (human) (UniProt Q15375)
EPHA8 (human) = EPHA8 (human) (UniProt P29322)
EPHB4 (human) = EPHB4 (human) (UniProt P54760)
FGFR2 (human) = FGFR2 (human) (UniProt P21802)
FGFR4 (human) = FGFR4 (human) (UniProt P22455)
GRK5 (human) = GRK5 (human) (UniProt P34947)
GSK3A (human) = GSK3A (human) (UniProt P49840)
HIPK1 (human) = HIPK1 (human) (UniProt Q86Z02)
HIPK3 (human) = HIPK3 (human) (UniProt Q9H422)
INSR (human) = INSR (human) (UniProt P06213)
IRAK1 (human) = IRAK1 (human) (UniProt P51617)
MAPK13 (human) = MAPK13 (human) (UniProt O15264)
MAPK14 (human) = MAPK14 (human) (UniProt Q16539)
MATK (human) = MATK (human) (UniProt P42679)
MELK (human) = MELK (human) (UniProt Q14680)
MYLK (human) = MYLK (human) (UniProt Q15746)
NLK (human) = NLK (human) (UniProt Q9UBE8)
PAK2 (human) = PAK2 (human) (UniProt Q13177)
PAK7 (human) = PAK7 (human) (UniProt Q9P286)
PLK2 (human) = PLK2 (human) (UniProt Q9NYY3)
PLK3 (human) = PLK3 (human) (UniProt Q9H4B4)
PRKACA (human) = PRKACA (human) (UniProt P17612)
PRKCG (human) = PRKCG (human) (UniProt P05129)
PRKG1 (human) = PRKG1 (human) (UniProt Q13976)
SGK2 (human) = SGK2 (human) (UniProt Q9HBY8)
SLK (human) = SLK (human) (UniProt Q9H2G2)
SRC (human) = SRC (human) (UniProt P12931)
SRPK3 (human) = SRPK3 (human) (UniProt Q9UPE1)
STK25 (human) = STK25 (human) (UniProt O00506)
STK33 (human) = STK33 (human) (UniProt Q9BYT3)
TEC (human) = TEC (human) (UniProt P42680)
TTK (human) = TTK (human) (UniProt P33981)

Chain of PRKG1 (human) (Q13976 whole entry, looked up): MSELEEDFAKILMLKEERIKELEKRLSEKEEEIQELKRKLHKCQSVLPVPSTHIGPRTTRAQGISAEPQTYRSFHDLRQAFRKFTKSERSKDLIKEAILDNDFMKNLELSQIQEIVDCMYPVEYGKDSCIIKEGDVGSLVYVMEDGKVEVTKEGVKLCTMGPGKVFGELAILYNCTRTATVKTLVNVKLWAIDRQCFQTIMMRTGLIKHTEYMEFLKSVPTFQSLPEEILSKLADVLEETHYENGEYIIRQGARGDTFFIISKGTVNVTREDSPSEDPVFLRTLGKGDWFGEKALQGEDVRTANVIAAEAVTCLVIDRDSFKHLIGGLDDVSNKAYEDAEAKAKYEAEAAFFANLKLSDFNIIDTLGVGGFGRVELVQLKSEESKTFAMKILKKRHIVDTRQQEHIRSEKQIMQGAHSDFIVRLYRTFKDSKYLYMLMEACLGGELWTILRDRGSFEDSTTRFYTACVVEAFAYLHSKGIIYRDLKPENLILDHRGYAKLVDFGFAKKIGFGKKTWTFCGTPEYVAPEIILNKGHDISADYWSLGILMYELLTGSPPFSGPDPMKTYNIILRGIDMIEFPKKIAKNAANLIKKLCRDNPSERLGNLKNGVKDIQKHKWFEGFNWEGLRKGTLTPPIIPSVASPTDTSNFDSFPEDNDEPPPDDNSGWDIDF
Chain of HIPK3 (human) (Q9H422 whole entry, looked up): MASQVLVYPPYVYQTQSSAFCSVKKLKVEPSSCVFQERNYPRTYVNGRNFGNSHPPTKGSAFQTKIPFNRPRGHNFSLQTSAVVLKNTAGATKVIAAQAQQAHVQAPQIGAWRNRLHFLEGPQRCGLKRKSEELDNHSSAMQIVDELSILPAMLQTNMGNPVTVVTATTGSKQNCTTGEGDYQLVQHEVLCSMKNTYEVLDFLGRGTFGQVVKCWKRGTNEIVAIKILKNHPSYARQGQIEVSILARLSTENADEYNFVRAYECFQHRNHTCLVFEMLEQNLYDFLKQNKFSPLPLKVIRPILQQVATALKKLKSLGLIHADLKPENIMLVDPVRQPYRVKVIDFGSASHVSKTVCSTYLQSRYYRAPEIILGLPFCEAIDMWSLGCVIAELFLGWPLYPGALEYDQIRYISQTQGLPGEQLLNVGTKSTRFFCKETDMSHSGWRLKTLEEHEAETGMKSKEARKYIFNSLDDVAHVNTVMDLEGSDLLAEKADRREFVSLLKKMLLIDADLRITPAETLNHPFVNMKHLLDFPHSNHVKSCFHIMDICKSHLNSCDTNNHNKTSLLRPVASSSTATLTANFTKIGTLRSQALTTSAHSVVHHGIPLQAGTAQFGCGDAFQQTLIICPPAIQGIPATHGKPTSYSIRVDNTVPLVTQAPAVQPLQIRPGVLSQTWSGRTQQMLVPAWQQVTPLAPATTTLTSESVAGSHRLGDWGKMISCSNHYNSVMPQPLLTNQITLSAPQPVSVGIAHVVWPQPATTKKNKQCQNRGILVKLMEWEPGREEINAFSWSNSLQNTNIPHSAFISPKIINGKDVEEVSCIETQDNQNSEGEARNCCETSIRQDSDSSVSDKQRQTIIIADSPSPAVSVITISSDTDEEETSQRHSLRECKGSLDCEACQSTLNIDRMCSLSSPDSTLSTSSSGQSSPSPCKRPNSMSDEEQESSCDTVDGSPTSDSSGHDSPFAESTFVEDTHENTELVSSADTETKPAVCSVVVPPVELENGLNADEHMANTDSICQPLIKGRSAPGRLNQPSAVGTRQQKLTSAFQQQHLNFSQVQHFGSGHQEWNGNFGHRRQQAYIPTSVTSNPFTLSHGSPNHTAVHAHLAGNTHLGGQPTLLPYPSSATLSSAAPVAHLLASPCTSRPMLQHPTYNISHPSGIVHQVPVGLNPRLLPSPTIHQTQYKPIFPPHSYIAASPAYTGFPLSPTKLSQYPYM
Chain of GRK5 (human) (P34947 whole entry, looked up): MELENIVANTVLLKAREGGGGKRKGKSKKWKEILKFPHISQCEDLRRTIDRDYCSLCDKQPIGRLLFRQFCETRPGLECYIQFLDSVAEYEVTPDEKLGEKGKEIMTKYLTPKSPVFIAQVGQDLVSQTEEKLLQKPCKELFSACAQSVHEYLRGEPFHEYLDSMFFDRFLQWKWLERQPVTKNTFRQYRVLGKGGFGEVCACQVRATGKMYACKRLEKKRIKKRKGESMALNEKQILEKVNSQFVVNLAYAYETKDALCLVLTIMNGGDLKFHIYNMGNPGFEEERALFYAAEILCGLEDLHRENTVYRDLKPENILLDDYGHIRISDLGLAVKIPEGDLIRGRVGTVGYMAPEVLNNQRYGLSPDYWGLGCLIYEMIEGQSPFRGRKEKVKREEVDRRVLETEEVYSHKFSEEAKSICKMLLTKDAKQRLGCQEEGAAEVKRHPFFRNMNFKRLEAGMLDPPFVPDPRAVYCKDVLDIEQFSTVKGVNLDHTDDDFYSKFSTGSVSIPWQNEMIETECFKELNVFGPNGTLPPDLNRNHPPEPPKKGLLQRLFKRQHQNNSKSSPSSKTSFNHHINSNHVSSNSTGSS
Chain of GSK3A (human) (P49840 whole entry, looked up): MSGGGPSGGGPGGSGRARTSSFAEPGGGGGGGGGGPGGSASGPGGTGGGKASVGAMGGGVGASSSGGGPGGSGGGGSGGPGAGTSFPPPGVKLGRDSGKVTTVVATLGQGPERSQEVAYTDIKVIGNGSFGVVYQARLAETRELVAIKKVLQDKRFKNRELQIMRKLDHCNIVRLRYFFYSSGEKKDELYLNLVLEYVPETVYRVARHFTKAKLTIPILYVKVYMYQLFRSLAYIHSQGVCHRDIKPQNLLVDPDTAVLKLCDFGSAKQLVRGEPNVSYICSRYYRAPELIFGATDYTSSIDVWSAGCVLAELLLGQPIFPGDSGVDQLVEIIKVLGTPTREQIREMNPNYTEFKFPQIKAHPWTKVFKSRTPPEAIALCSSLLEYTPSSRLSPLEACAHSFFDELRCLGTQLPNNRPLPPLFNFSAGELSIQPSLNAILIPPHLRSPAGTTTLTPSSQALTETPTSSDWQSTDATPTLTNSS
Chain of AKT2 (human) (P31751 whole entry, looked up): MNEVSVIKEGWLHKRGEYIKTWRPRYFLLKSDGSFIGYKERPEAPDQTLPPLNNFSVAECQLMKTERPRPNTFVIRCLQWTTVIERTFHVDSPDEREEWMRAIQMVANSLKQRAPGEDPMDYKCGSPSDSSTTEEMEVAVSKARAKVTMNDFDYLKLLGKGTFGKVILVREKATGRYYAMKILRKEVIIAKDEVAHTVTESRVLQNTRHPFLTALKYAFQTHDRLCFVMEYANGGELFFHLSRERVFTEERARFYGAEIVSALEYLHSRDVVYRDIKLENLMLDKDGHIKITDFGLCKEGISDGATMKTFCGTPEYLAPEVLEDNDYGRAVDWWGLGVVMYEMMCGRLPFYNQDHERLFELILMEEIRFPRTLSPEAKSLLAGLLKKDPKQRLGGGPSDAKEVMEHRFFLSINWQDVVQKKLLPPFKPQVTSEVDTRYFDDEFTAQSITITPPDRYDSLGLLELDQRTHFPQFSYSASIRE
Chain of PLK3 (human) (Q9H4B4 whole entry, looked up): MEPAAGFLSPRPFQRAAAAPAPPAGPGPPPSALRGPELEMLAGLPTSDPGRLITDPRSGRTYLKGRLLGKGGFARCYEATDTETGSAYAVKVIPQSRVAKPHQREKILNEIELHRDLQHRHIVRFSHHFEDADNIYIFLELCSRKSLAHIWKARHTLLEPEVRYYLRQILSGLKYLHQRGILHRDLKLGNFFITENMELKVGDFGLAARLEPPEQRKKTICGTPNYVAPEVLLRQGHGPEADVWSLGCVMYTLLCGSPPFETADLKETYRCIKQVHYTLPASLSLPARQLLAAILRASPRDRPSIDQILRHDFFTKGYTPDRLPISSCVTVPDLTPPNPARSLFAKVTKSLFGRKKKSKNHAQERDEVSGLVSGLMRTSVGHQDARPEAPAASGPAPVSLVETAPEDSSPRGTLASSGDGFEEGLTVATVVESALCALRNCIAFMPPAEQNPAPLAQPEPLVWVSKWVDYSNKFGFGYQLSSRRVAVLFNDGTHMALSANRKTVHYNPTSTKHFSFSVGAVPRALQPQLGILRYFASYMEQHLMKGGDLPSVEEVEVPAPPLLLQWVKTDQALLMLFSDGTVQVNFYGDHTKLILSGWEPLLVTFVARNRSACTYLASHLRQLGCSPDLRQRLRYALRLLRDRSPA
Chain of SRPK3 (human) (Q9UPE1 whole entry, looked up): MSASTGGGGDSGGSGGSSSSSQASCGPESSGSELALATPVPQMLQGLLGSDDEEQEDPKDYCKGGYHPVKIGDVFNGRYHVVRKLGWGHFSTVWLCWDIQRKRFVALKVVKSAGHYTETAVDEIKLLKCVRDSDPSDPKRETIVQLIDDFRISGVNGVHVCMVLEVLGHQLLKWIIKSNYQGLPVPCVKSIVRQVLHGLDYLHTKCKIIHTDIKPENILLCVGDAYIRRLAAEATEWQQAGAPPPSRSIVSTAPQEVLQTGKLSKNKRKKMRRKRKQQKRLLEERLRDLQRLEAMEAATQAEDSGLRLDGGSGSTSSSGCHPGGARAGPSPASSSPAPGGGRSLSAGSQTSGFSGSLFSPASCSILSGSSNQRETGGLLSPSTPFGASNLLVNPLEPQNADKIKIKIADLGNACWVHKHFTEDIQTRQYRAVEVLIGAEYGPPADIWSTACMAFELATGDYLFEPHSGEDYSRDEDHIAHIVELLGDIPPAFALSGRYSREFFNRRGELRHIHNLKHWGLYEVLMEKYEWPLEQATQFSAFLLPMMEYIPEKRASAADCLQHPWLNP
Chain of MAPK14 (human) (Q16539 whole entry, looked up): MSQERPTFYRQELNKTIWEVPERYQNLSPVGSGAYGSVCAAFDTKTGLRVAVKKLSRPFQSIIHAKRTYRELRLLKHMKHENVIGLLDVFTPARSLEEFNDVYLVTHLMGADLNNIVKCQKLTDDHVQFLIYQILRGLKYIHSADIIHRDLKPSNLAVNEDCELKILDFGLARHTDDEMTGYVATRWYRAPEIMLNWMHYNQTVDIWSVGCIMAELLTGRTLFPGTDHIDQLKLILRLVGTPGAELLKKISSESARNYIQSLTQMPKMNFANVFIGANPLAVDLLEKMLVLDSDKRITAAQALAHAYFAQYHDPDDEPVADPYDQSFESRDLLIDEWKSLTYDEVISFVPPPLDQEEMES

O=C(O)/C=C/c1cc(Br)c(Br)c(Br)c1Br
residual activity (AKT2 (human)): 97.5% | residual activity (BLK (human)): 95.1% | residual activity (BMX (human)): 97% | residual activity (CAMK2G (human)): 104% | residual activity (CDK5 CDK5R1 p35 (human)): 92.4% | residual activity (CDK6 CCND1 (human)): 102% | residual activity (CDK9 CCNT1 (human)): 58.9% | residual activity (CSNK1G1 (human)): 97.2% | residual activity (DDR2 (human)): 94.3% | residual activity (DMPK (human)): 103% | residual activity (EPHA7 (human)): 94.1% | residual activity (EPHA8 (human)): 99.1% | residual activity (EPHB4 (human)): 81.2% | residual activity (FGFR2 (human)): 99.5% | residual activity (FGFR4 (human)): 88.3% | residual activity (GRK5 (human)): 104% | residual activity (GSK3A (human)): 91.5% | residual activity (HIPK1 (human)): 99.6% | residual activity (HIPK3 (human)): 96.7% | residual activity (INSR (human)): 98.6% | residual activity (IRAK1 (human)): 94.4% | residual activity (MAPK13 (human)): 98.5% | residual activity (MAPK14 (human)): 99.5% | residual activity (MATK (human)): 87.2% | residual activity (MELK (human)): 91% | residual activity (MYLK (human)): 83.3% | residual activity (NLK (human)): 99.1% | residual activity (PAK2 (human)): 83.2% | residual activity (PAK7 (human)): 90.6% | residual activity (PLK2 (human)): 51.5% | residual activity (PLK3 (human)): 73.6% | residual activity (PRKACA (human)): 98.4% | residual activity (PRKCG (human)): 89.4% | residual activity (PRKG1 (human)): 78.9% and 89% | residual activity (SGK2 (human)): 59.7% | residual activity (SLK (human)): 96% | residual activity (SRC (human)): 88.8% | residual activity (SRPK3 (human)): 66.9% | residual activity (STK25 (human)): 87.2% | residual activity (STK33 (human)): 67.9% | residual activity (TEC (human)): 107% | residual activity (TTK (human)): 98.1%

— the kinase profiling compilation of Christmann-Franck et al. (2016)
